Data published in PubChem BioAssay (NCI).
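Results reflect a 48-hour exposure of cells in 96-well plates to compound at five concentrations. TGI: concentration producing complete growth inhibition.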

What was measured:
Assay in all cases: NCI-60 cell line screen, 48 h
HL-60(TB) leukemia = test system: HL-60(TB) leukemia
786-0 renal = test system: 786-0 renal
HT29 colon = test system: HT29 colon
M19-MEL melanoma = test system: M19-MEL melanoma
A549 NSCLC = test system: A549 NSCLC
COLO 205 colon = test system: COLO 205 colon
UACC-257 melanoma = test system: UACC-257 melanoma
UO-31 renal = test system: UO-31 renal
RXF-631 renal = test system: RXF-631 renal
NCI-H226 lung = test system: NCI-H226 lung
RXF 393 renal = test system: RXF 393 renal
OVCAR-8 ovarian = test system: OVCAR-8 ovarian
TK-10 renal = test system: TK-10 renal
UACC-62 melanoma = test system: UACC-62 melanoma
SK-MEL-5 melanoma = test system: SK-MEL-5 melanoma
KM20L2 colon = test system: KM20L2 colon
SK-MEL-2 melanoma = test system: SK-MEL-2 melanoma
K-562 leukemia = test system: K-562 leukemia
SF-539 CNS = test system: SF-539 CNS
HOP-62 NSCLC = test system: HOP-62 NSCLC
U251 CNS = test system: U251 CNS
LXFL 529 NSCLC = test system: LXFL 529 NSCLC
NCI-H23 lung = test system: NCI-H23 lung
OVCAR-3 ovarian = test system: OVCAR-3 ovarian
CAKI-1 renal = test system: CAKI-1 renal
SNB-19 CNS = test system: SNB-19 CNS
DLD-1 colon = test system: DLD-1 colon
SF-295 CNS = test system: SF-295 CNS
KM12 colon = test system: KM12 colon
SNB-75 CNS = test system: SNB-75 CNS
OVCAR-4 ovarian = test system: OVCAR-4 ovarian
HCT-116 colon = test system: HCT-116 colon
SR leukemia = test system: SR leukemia
RPMI-8226 leukemia = test system: RPMI-8226 leukemia
CCRF-CEM leukemia = test system: CCRF-CEM leukemia
MOLT-4 leukemia = test system: MOLT-4 leukemia
SK-OV-3 ovarian = test system: SK-OV-3 ovarian
M14 melanoma = test system: M14 melanoma
ACHN renal = test system: ACHN renal
HCT-15 colon = test system: HCT-15 colon
MALME-3M melanoma = test system: MALME-3M melanoma
DMS 114 small cell lung = test system: DMS 114 small cell lung
SW-620 colon = test system: SW-620 colon
SN12C renal = test system: SN12C renal
NCI-H522 lung = test system: NCI-H522 lung
SF-268 CNS = test system: SF-268 CNS
HOP-18 NSCLC = test system: HOP-18 NSCLC
HOP-92 NSCLC = test system: HOP-92 NSCLC
NCI-H460 lung = test system: NCI-H460 lung
SK-MEL-28 melanoma = test system: SK-MEL-28 melanoma
EKVX NSCLC = test system: EKVX NSCLC
IGROV1 ovarian = test system: IGROV1 ovarian
LOX IMVI melanoma = test system: LOX IMVI melanoma
XF 498 CNS = test system: XF 498 CNS
A498 renal = test system: A498 renal
OVCAR-5 ovarian = test system: OVCAR-5 ovarian
SNB-78 CNS = test system: SNB-78 CNS
HCC-2998 colon = test system: HCC-2998 colon
DMS 273 small cell lung = test system: DMS 273 small cell lung

CC1(C)COC(C2(C)C(=O)C=C(c3ccccc3)c3ccccc32)=N1 (configuration not stated)
TGI (HL-60(TB) leukemia): 67.7 µM
TGI (786-0 renal): > 100 µM
TGI (HT29 colon): 99 µM
TGI (M19-MEL melanoma): > 100 µM
TGI (A549 NSCLC): > 100 µM
TGI (COLO 205 colon): > 100 µM
TGI (UACC-257 melanoma): > 100 µM
TGI (UO-31 renal): 98.6 µM
TGI (RXF-631 renal): > 100 µM
TGI (NCI-H226 lung): > 100 µM
TGI (RXF 393 renal): > 100 µM
TGI (OVCAR-8 ovarian): > 100 µM
TGI (TK-10 renal): > 100 µM
TGI (UACC-62 melanoma): > 100 µM
TGI (SK-MEL-5 melanoma): > 100 µM
TGI (KM20L2 colon): > 100 µM
TGI (SK-MEL-2 melanoma): > 100 µM
TGI (K-562 leukemia): > 100 µM
TGI (SF-539 CNS): > 100 µM
TGI (HOP-62 NSCLC): > 100 µM
TGI (U251 CNS): > 100 µM
TGI (LXFL 529 NSCLC): > 100 µM
TGI (NCI-H23 lung): > 100 µM
TGI (OVCAR-3 ovarian): > 100 µM
TGI (CAKI-1 renal): > 100 µM
TGI (SNB-19 CNS): > 100 µM
TGI (DLD-1 colon): > 100 µM
TGI (SF-295 CNS): > 100 µM
TGI (KM12 colon): > 100 µM
TGI (SNB-75 CNS): > 100 µM
TGI (OVCAR-4 ovarian): > 100 µM
TGI (HCT-116 colon): > 100 µM
TGI (SR leukemia): > 100 µM
TGI (RPMI-8226 leukemia): > 100 µM
TGI (CCRF-CEM leukemia): > 100 µM
TGI (MOLT-4 leukemia): > 100 µM
TGI (SK-OV-3 ovarian): 47.9 µM
TGI (M14 melanoma): > 100 µM
TGI (ACHN renal): > 100 µM
TGI (HCT-15 colon): > 100 µM
TGI (MALME-3M melanoma): 63.8 µM
TGI (DMS 114 small cell lung): > 100 µM
TGI (SW-620 colon): > 100 µM
TGI (SN12C renal): > 100 µM
TGI (NCI-H522 lung): > 100 µM
TGI (SF-268 CNS): > 100 µM
TGI (HOP-18 NSCLC): > 100 µM
TGI (HOP-92 NSCLC): > 100 µM
TGI (NCI-H460 lung): > 100 µM
TGI (SK-MEL-28 melanoma): > 100 µM
TGI (EKVX NSCLC): > 100 µM
TGI (IGROV1 ovarian): > 100 µM

CC(=O)OC1/C=C(\C)C(OC(C)=O)C/C=C(/C)CCC2C(/C=C/C1=O)C2(C)C (configuration not stated)
TGI (LOX IMVI melanoma): > 100 µM
TGI (HT29 colon): > 100 µM
TGI (M19-MEL melanoma): > 100 µM
TGI (A549 NSCLC): > 100 µM
TGI (COLO 205 colon): > 100 µM
TGI (UACC-257 melanoma): > 100 µM
TGI (UO-31 renal): > 100 µM
TGI (RXF-631 renal): > 100 µM
TGI (NCI-H226 lung): > 100 µM
TGI (XF 498 CNS): > 100 µM
TGI (RXF 393 renal): > 100 µM
TGI (OVCAR-8 ovarian): > 100 µM
TGI (A498 renal): > 100 µM
TGI (TK-10 renal): > 100 µM
TGI (UACC-62 melanoma): > 100 µM
TGI (SK-MEL-5 melanoma): > 100 µM
TGI (OVCAR-5 ovarian): > 100 µM
TGI (KM20L2 colon): > 100 µM
TGI (SK-MEL-2 melanoma): > 100 µM
TGI (SF-539 CNS): > 100 µM
TGI (HOP-62 NSCLC): > 100 µM
TGI (U251 CNS): > 100 µM
TGI (SNB-78 CNS): > 100 µM
TGI (LXFL 529 NSCLC): > 100 µM
TGI (NCI-H23 lung): > 100 µM
TGI (OVCAR-3 ovarian): > 100 µM
TGI (SNB-19 CNS): > 100 µM
TGI (DLD-1 colon): > 100 µM
TGI (SF-295 CNS): > 100 µM
TGI (KM12 colon): > 100 µM
TGI (SNB-75 CNS): 93.1 µM
TGI (OVCAR-4 ovarian): > 100 µM
TGI (HCT-116 colon): > 100 µM
TGI (CCRF-CEM leukemia): > 100 µM
TGI (MOLT-4 leukemia): > 100 µM
TGI (SK-OV-3 ovarian): > 100 µM
TGI (M14 melanoma): > 100 µM
TGI (ACHN renal): > 100 µM
TGI (HCT-15 colon): > 100 µM
TGI (MALME-3M melanoma): > 100 µM
TGI (SW-620 colon): > 100 µM
TGI (SN12C renal): > 100 µM
TGI (NCI-H522 lung): > 100 µM
TGI (SF-268 CNS): > 100 µM
TGI (HOP-18 NSCLC): > 100 µM
TGI (HOP-92 NSCLC): > 100 µM
TGI (NCI-H460 lung): > 100 µM
TGI (HCC-2998 colon): > 100 µM
TGI (SK-MEL-28 melanoma): > 100 µM
TGI (EKVX NSCLC): > 100 µM
TGI (IGROV1 ovarian): > 100 µM

CN1CC(=O)N2Cc3ccccc3-n3cccc3C2C1 (configuration not stated)
TGI (LOX IMVI melanoma): > 100 µM
TGI (786-0 renal): > 100 µM
TGI (HT29 colon): > 100 µM
TGI (M19-MEL melanoma): > 100 µM
TGI (A549 NSCLC): > 100 µM
TGI (COLO 205 colon): > 100 µM
TGI (UACC-257 melanoma): > 100 µM
TGI (UO-31 renal): > 100 µM
TGI (DMS 273 small cell lung): > 100 µM
TGI (RXF-631 renal): > 100 µM
TGI (XF 498 CNS): > 100 µM
TGI (RXF 393 renal): > 100 µM
TGI (OVCAR-8 ovarian): > 100 µM
TGI (A498 renal): > 100 µM
TGI (TK-10 renal): > 100 µM
TGI (UACC-62 melanoma): > 100 µM
TGI (SK-MEL-5 melanoma): > 100 µM
TGI (OVCAR-5 ovarian): > 100 µM
TGI (KM20L2 colon): > 100 µM
TGI (SK-MEL-2 melanoma): > 100 µM
TGI (SF-539 CNS): > 100 µM
TGI (HOP-62 NSCLC): > 100 µM
TGI (U251 CNS): > 100 µM
TGI (SNB-78 CNS): > 100 µM
TGI (LXFL 529 NSCLC): > 100 µM
TGI (NCI-H23 lung): > 100 µM
TGI (OVCAR-3 ovarian): > 100 µM
TGI (CAKI-1 renal): > 100 µM
TGI (SNB-19 CNS): > 100 µM
TGI (DLD-1 colon): > 100 µM
TGI (SF-295 CNS): > 100 µM
TGI (KM12 colon): > 100 µM
TGI (SNB-75 CNS): > 100 µM
TGI (OVCAR-4 ovarian): > 100 µM
TGI (HCT-116 colon): > 100 µM
TGI (SK-OV-3 ovarian): > 100 µM
TGI (M14 melanoma): > 100 µM
TGI (ACHN renal): > 100 µM
TGI (HCT-15 colon): > 100 µM
TGI (MALME-3M melanoma): > 100 µM
TGI (SW-620 colon): > 100 µM
TGI (SN12C renal): > 100 µM
TGI (SF-268 CNS): > 100 µM
TGI (HOP-18 NSCLC): 91.7 µM
TGI (NCI-H460 lung): > 100 µM
TGI (HCC-2998 colon): > 100 µM
TGI (SK-MEL-28 melanoma): > 100 µM
TGI (EKVX NSCLC): > 100 µM
TGI (IGROV1 ovarian): > 100 µM

[N-]=[N+]=NC1(Cc2ccccc2)C(=O)c2cccc3c2N(CCC3)C1=O (configuration not stated)
TGI (LOX IMVI melanoma): > 100 µM
TGI (HL-60(TB) leukemia): > 100 µM
TGI (786-0 renal): > 100 µM
TGI (HT29 colon): > 100 µM
TGI (M19-MEL melanoma): > 100 µM
TGI (A549 NSCLC): > 100 µM
TGI (COLO 205 colon): > 100 µM
TGI (UACC-257 melanoma): > 100 µM
TGI (UO-31 renal): > 100 µM
TGI (DMS 273 small cell lung): > 100 µM
TGI (NCI-H226 lung): > 100 µM
TGI (RXF 393 renal): > 100 µM
TGI (OVCAR-8 ovarian): > 100 µM
TGI (TK-10 renal): > 100 µM
TGI (UACC-62 melanoma): > 100 µM
TGI (SK-MEL-5 melanoma): > 100 µM
TGI (OVCAR-5 ovarian): > 100 µM
TGI (SK-MEL-2 melanoma): > 100 µM
TGI (K-562 leukemia): > 100 µM
TGI (SF-539 CNS): > 100 µM
TGI (HOP-62 NSCLC): > 100 µM
TGI (U251 CNS): > 100 µM
TGI (LXFL 529 NSCLC): > 100 µM
TGI (NCI-H23 lung): > 100 µM
TGI (CAKI-1 renal): > 100 µM
TGI (DLD-1 colon): > 100 µM
TGI (SF-295 CNS): > 100 µM
TGI (KM12 colon): > 100 µM
TGI (SNB-75 CNS): > 100 µM
TGI (OVCAR-4 ovarian): > 100 µM
TGI (HCT-116 colon): > 100 µM
TGI (SR leukemia): > 100 µM
TGI (RPMI-8226 leukemia): > 100 µM
TGI (CCRF-CEM leukemia): > 100 µM
TGI (MOLT-4 leukemia): > 100 µM
TGI (SK-OV-3 ovarian): > 100 µM
TGI (M14 melanoma): > 100 µM
TGI (ACHN renal): > 100 µM
TGI (HCT-15 colon): > 100 µM
TGI (MALME-3M melanoma): > 100 µM
TGI (DMS 114 small cell lung): > 100 µM
TGI (SW-620 colon): > 100 µM
TGI (SN12C renal): > 100 µM
TGI (NCI-H522 lung): > 100 µM
TGI (SF-268 CNS): > 100 µM
TGI (HOP-18 NSCLC): > 100 µM
TGI (HOP-92 NSCLC): > 100 µM
TGI (NCI-H460 lung): > 100 µM
TGI (SK-MEL-28 melanoma): > 100 µM
TGI (IGROV1 ovarian): > 100 µM
